Reference: patent US9657046B2, “Methods for the treatment and prevention of inflammatory diseases” (Children's Medical Center Corporation, priority 2010, dated 2017)

Columns and labels:
BALB/c mice = experiment: OVA-induced AHR in adult mice treated with glycolipid at 2 weeks of age; assay type: in vivo, mouse; conditions: 2 wk old mice treated i.p. (α-C-GalCer 5 μg, α-GalCer 2 μg, PI57 50 or 100 μg, PBS30 50 μg); AHR induced 6 wks (42 days) later
Experimental: In FIGS. 6A-6B, two-week-old BALB/c mice (n=6-8/group) (6A) or Tbet^−/− mice (6B) (n=4-6 per group) received 5 μg […] (cGal), 2 μg α-GalCer, or vehicle. After OVA sensitization and challenge, AHR was measured on day 44. In FIG. 6C, donor mice were treated with α-C-GalCer (5 μg) or vehicle i.p. NKT cells served as donors, as in FIG. 4A (n=4 per group). Lung resistance (left) and cell counts in BAL (right) were assessed. […] In FIG. 6E, mice received PI57 (50 μg), α-GalCer (2 μg), or vehicle i.p., and lungs were examined 1 or 14 days later for CD4 and CD8 expression. In FIG. 6F, absolute numbers of CD4^+ NKT and DN NKT subsets from 6E were assessed. In FIG. 6G, BALB/c mice (n=5-8/group) received PI57 or vehicle i.p. Lung resistance (left) and BAL cells (right) were assessed. In FIG. 6H, BALB/c mice treated with PI57 (50 μg), PBS30 (Sphingomonas glycolipid) (50 μg), or vehicle i.p. were assessed for AHR as in 6G. In FIG. 6I, donor mice were treated with PI57 (50 μg) or vehicle i.p. NKT cells served as donors as in FIG. 4A. Lung resistance (left) and BAL cells (right) were assessed (n=4 per group). […] Data represent 2-3 independent experiments. *P<0.05, #P<0.05, ***P<0.001 versus vehicle-OVA (6C, 6G, and 6I), DN NKT saline (6F), and CD4^+ NKT saline (6F).
Induction of AHR and measurement of airway responsiveness in the OVA model.
To induce AHR, BALB/c mice were sensitized with 100 μg of OVA (Sigma-Aldrich) in alum administered i.p (on day 0). After sensitization, mice were exposed to intranasal antigen (50 μg OVA/day) or normal saline for 1 day (day 7; single dose challenge protocol), or for 3 consecutive days (days 7, 8, 9). AHR was assessed on the day after last OVA-challenge. Control mice received i.p. injection of PBS and intranasal administrations of normal saline.

T-bet−/− mice = experiment: OVA-induced AHR in T-bet−/− mice treated with glycolipid at 2 weeks of age; assay type: in vivo, mouse; conditions: 2 wk old T-bet−/− mice; α-C-GalCer 5 μg or PI57 50 μg; AHR measured on day 44
Experimental: In FIGS. 6A-6B, two-week-old BALB/c mice (n=6-8/group) (6A) or Tbet^−/− mice (6B) (n=4-6 per group) received 5 μg […] (cGal), 2 μg α-GalCer, or vehicle. After OVA sensitization and challenge, AHR was measured on day 44. In FIG. 6C, donor mice were treated with α-C-GalCer (5 μg) or vehicle i.p. NKT cells served as donors, as in FIG. 4A (n=4 per group). Lung resistance (left) and cell counts in BAL (right) were assessed. […] In FIG. 6E, mice received PI57 (50 μg), α-GalCer (2 μg), or vehicle i.p., and lungs were examined 1 or 14 days later for CD4 and CD8 expression. In FIG. 6F, absolute numbers of CD4^+ NKT and DN NKT subsets from 6E were assessed. In FIG. 6G, BALB/c mice (n=5-8/group) received PI57 or vehicle i.p. Lung resistance (left) and BAL cells (right) were assessed. In FIG. 6H, BALB/c mice treated with PI57 (50 μg), PBS30 (Sphingomonas glycolipid) (50 μg), or vehicle i.p. were assessed for AHR as in 6G. […] Lung resistance (left) and BAL cells (right) were assessed (n=4 per group). […]
In FIG. 10, NKT cells from α-GalCer or vehicle-treated mice were adoptively transferred to OVA-sensitized BALB/c recipients. AHR was measured after OVA challenge. […] After sensitization and challenge with OVA, AHR was measured on day 44. […]
To induce AHR, BALB/c mice were sensitized with 100 μg of OVA (Sigma-Aldrich) in alum administered i.p (on day 0). […] AHR was assessed on the day after last OVA-challenge. […]

mouse NKT cell lines = experiment: Staining of mouse NKT cell line with PI57-loaded CD1d tetramers; assay type: binding
Experimental: In FIG. 7A, NKT cell lines were cocultured with BM-derived DCs (BMDCs) and α-GalCer (100 ng/ml), PI57 (10 μg/ml), or vehicle for 48 hours, with or without pre-incubation with anti-CD1d (10 μg/ml). IFN-γ was measured by ELISA. In FIG. 7B, murine NKT cell lines were cocultured as in 7A with BMDCs from WT, Cd1d^−/−, Myd88^−/−, or Trif^−/− mice. Cells were treated with α-GalCer (100 ng/ml), PI57 (2.5, 5, or 10 μg/ml), PBS30 (1, 2.5, or 5 μg/ml), or vehicle for 48 hours. IFN-γ and IL-4 were measured by ELISA. […] In FIG. 7D, mouse NKT cell lines were stained with PE-labeled CD1d tetramers of PI57 or α-GalCer at 4° C. for 45 minutes or 37° C. for 25 minutes, and with anti-TCRβ-APC antibody. Top: Lymphocytes were gated in the FSC/SSC window. Bottom: Percentage of CD1d tetramer+ cells. […] In FIG. 7G, CD1d Fc-coated Maxisorp plates were loaded with lipid and cultured with 5×10^4 NKT cells. IFN-γ was analyzed by ELISA after 24 hours. Data represent 3 or 5 independent experiments.
To generate PI57 loaded mCD1d monomers, a 10-fold molar excess of PI57 in DMSO at 2 mg/ml was incubated with biotinylated-mCD1d (from the NIH Tetramer facility) in 2 mM CHAPS and 20 mM Tris pH7.0 overnight at room temperature. […]
Cells were preincubated with anti-Fey blocking mAb (2.4G2) and washed before staining. […] Cells were analyzed on a BDCanto flow cytometer (BD Biosciences) using FlowJo 8.3.3 software (Tree Star, Inc.).

## CCCCCCCCCCCCCC(=O)OC[C@H]1O[C@H](O[C@H]2CC[C@@]3(C)C(=CC[C@H]4[C@@H]5CC[C@H]([C@H](C)CCCC(C)C)[C@@]5(C)CC[C@@H]43)C2)[C@H](O)[C@@H](O)[C@@H]1O [PI57, Cholesteryl 6-O-tetradecanoyl-α-D-glucopyranoside]
BALB/c mice
  protection against development of OVA-induced AHR (lung resistance): protected the mice from the development of OVA-induced AHR
T-bet−/− mice
  protection against OVA-induced AHR in T-bet−/− mice: did not protect against subsequent OVA-induced AHR
Mouse NKT cell lines
  fraction of PI57-CD1d tetramer+ cells that were CD4− (DN): 92%
Mouse NKT cell lines; 4° C. for 45 minutes or 37° C. for 25 minutes
  NKT cells in an NKT cell line stained by glycolipid-loaded CD1d tetramers: 10-23%
